Tested on: ES-D3 cells
Assay: ES-D3 cell differentiation assay (differentiation into contracting cardiomyocytes)
Type: cell-based, mouse
Conditions: for Corrected BMCd50: BMCd50 divided by relative Papp value (BeWo model); for IC50: Mus musculus, Cardiomyocyte, 240 h, concentration for 50 % reduction in number of differentiated EBs, BMD modelling, day 10, read-out: BMCd50
Protocol: The murine ES-D3 cell line was purchased from ATCC (Wesel, Germany). The cells were maintained in polystyrene cell culture flasks (Corning, The Netherlands) in Dulbecco’s modified Eagle’s medium (DMEM, Invitrogen, Breda, The Netherlands), supplemented with 20 % heat-inactivated fetal calf serum (Lonza, BioWhittaker, Verviers, Belgium), 50 U/ml penicillin with 50 μg/ml streptomycin (Invitrogen), 2 mM L-glutamine (Invitrogen), 0.1 mM β-mercaptoethanol (Sigma-Aldrich) and 1 % (v/v) nonessential amino acids (Invitrogen), at 37 °C and 5 % CO2 in a humidified atmosphere. Cells were kept undifferentiated with 1000 U/ml murine leukemia inhibiting factor (LIF) (Sigma-Aldrich) and subcultured every 2–3 days using nonenzymatic cell dissociation solution (Sigma-Aldrich) to detach the cells.
Differentiation assays were carried out to detect the effect of test compounds on the differentiation of ES-D3 cells into contracting cardiomyocytes using culture medium in the absence of LIF. On day 1, droplets of 20 μl cell suspension (3.75 × 10^4 cells/ml) were placed as hanging drops, to which the test compounds 0594, 0595, 0596, 0599, 0600 and 0618 were added at concentrations ranging from 0.2 to 60 μM (final solvent concentration 0.2 % DMSO), on the inner side of the lid of a 96-well plate. Sterile lids of Eppendorf tubes were placed on the corner wells of the plates to prevent contact of the drops with the plate. The wells of the 96-well plate were filled with 250 μl phosphate buffered saline (PBS) (Invitrogen), and the plate was sealed with Micropore tape (3M, Neuss, Germany) to prevent evaporation of the hanging drops. Plates were incubated for 3 days at 37 °C and 5 % CO2 in a humidified atmosphere. In the drops, cells formed embryonic bodies (EBs), which were transferred to nontissue culture-treated Petri dishes (diameter 6 cm, Greiner) with 5 ml of medium with test compound. On day 5, the EBs were transferred to a 24-well plate (Corning) with 1 ml of medium with test compound, with one EB per well. On day 10, the number of wells containing contracting EBs was determined by visual inspection using a light microscope. Solvent control (0.2 % DMSO in culture medium) was included in each experiment. The solvent control was also used to assess the quality of the batch of ES-D3 cells used in each individual test (cells being randomly distributed over test groups and solvent control). Tests were accepted for further analysis if at least 21 of the 24 wells of the solvent control contained contracting cardiomyocytes. For each test compound, three independent assays were performed. The results were expressed as “fraction of total,” with 1.0 implying all EBs in one 24-well plate differentiated into contracting cardiomyocytes.
Different dichotomous concentration–response models were fitted to the in vitro developmental toxicity data obtained from the ES-D3 cell differentiation assay to calculate benchmark concentrations (BMC) using Environmental Protection Agency benchmark dose (BMD) software version 2.4. For each test compound, the BMCd50, representing the concentration for a 50 % reduction in the number of differentiated EBs, was derived. Models included in the evaluation were the gamma, logistic, loglogistic, probit, logprobit, multistage, weibull and the quantal-linear model. […] The lowest BMCd50 value was chosen from the accepted models.
To combine in vitro developmental toxicity data obtained from the ES-D3 cell differentiation assay with placental transfer data obtained from the BeWo transport model, a corrected BMCd50 value was calculated by dividing the BMCd50 values by the relative Papp values, as described in Li et al. ([2015]).

| Compound | Corrected BMCd50 [µM] | IC50 [µM] |
| --- | --- | --- |
| CC(c1nc(-c2ccc(C#N)cc2)cs1)C(O)(Cn1cncn1)c1ccc(F)cc1 (stereo not shown) [compound 0596, 4-{2-[2-(4-Fluoro-phenyl)-2-hydroxy-1-methyl-3-[1,2,4]triazol-1-yl-propyl]-thiazol-4-yl}-benzonitrile] | 18.1 | 11.4 |
| CC1CC(C)OC(Cn2cncn2)(c2ccc(Oc3ccc(Cl)cc3)cc2Cl)O1 (stereo not shown) [compound 0600, 1-[[2-[2-Chloro-4-(4-chlorophenoxy)phenyl]-4,6-dimethyl-1,3-dioxan-2-yl]methyl]-1,2,4-triazole] | 21.0 | 4.2 |
| OC(c1cccnc1)c1c(-c2ccc(F)cc2F)csc1-c1ccc(F)cc1F (stereo not shown) [compound 0595, [2,4-Bis-(2,4-difluoro-phenyl)-thiophen-3-yl]-pyridin-3-yl-methanol] | 141.8 | 11 |
| OC(c1cccnc1)c1c(-c2ccc(F)cc2F)noc1-c1ccc(Cl)cc1F (stereo not shown) [compound 0594, [5-(4-Chloro-2-fluoro-phenyl)-3-(2,4-difluoro-phenyl)-isoxazol-4-yl]-pyridin-3-yl-methanol] | 23.3 | 6.9 |
| CC(c1nc(-c2ccc(C#N)cc2)cs1)C(O)(Cn1ccnc1)c1ccc(F)cc1 (stereo not shown) [compound 0599, 4-[2-[2-(4-Fluorophenyl)-2-hydroxy-3-imidazol-1-yl-1-methyl-propyl]thiazol-4-yl]benzonitrile] | 3.8 | 1.8 |

— paper PMC4830886, “Extended evaluation on the ES-D3 cell differentiation assay combined with the BeWo transport model, to predict relative developmental toxicity of triazole compounds” (Archives of Toxicology, 2015)
